One block for each compound: values may come before it. The source made the active and inactive calls. The rule behind the calls is not given here.
What was measured:
[1] = test system: HT-29; assay: Antiproliferative activity against human HT-29 cells assessed as reduction in cell growth incubated for 48 hrs by MTT assay; format: functional, cell-based; details: HT-29, 48 h
[2] = test system: A549; assay: Antiproliferative activity against human A549 cells assessed as reduction in cell growth incubated for 48 hrs by MTT assay; format: functional, cell-based; details: A549, 48 h
[3] = test system: HT-29; assay: Induction of apoptosis in human HT-29 cells assessed as downregulation of Bcl2 expression at 1 to 10 uM incubated for 48 hrs by Western blot analysis; format: functional, cell-based; details: dose 1-10 µM
[4] = biological target: Vascular endothelial growth factor receptor 2 (Homo sapiens) (UniProt P35968); assay: Inhibition of VEGFR2 in human HT-29 cells assessed as reduction in MEK expression incubated for 48 hrs by Western blot analysis; format: cell-based; details: dose 1-10 µM
[5] = test system: HT-29; assay: Induction of apoptosis in human HT-29 cells assessed as increase in ratio of Bax/Bcl2 at 1 to 10 uM incubated for 48 hrs by Western blot analysis; format: functional, cell-based; details: dose 1-10 µM
[6] = biological target: Vascular endothelial growth factor receptor 2 (Homo sapiens) (UniProt P35968); assay: Inhibition of VEGFR2 in human HT-29 cells assessed as reduction in VEGFR2 phosphorylation incubated for 48 hrs by Western blot analysis; format: cell-based; details: dose 1-10 µM
[7] = test system: HT-29; assay: Induction of cell cycle arrest in human HT-29 cells assessed as subG1 phase accumulation at 10 uM incubated for 48 hrs by PI staining based flow cytometry analysis (reference value: 0.06 %); format: functional
[8] = test system: HT-29; assay: Induction of apoptosis in human HT-29 cells assessed as late apoptotic cells at 5 uM incubated for 48 hrs by annexin V-FITC and PI staining based flow cytometry analysis (reference value: 1.08 %); format: functional
[9] = test system: HT-29; assay: Induction of apoptosis in human HT-29 cells assessed as necrotic cells at 10 uM incubated for 48 hrs by annexin V-FITC and PI staining based flow cytometry analysis (reference value: 9.68 %); format: functional
[10] = test system: HT-29; assay: Induction of apoptosis in human HT-29 cells assessed as early apoptotic cells at 1 uM incubated for 48 hrs by annexin V-FITC and PI staining based flow cytometry analysis (reference value: 1.01 %); format: functional
[11] = test system: HT-29; assay: Induction of cell cycle arrest in human HT-29 cells assessed as reduction in CDK4 level incubated for 48 hrs by Western blot analysis; format: functional, cell-based; details: dose 1-10 µM
[12] = test system: HT-29; assay: Induction of apoptosis in human HT-29 cells assessed as viable cells at 1 uM incubated for 48 hrs by annexin V-FITC and PI staining based flow cytometry analysis (reference value: 88.2 %); format: functional; details: read-out: Activity
[13] = test system: HT-29; assay: Induction of apoptosis in human HT-29 cells assessed as necrotic cells at 5 uM incubated for 48 hrs by annexin V-FITC and PI staining based flow cytometry analysis (reference value: 9.68 %); format: functional
[14] = test system: HT-29; assay: Induction of cell cycle arrest in human HT-29 cells assessed as subG1 phase accumulation at 1 uM incubated for 48 hrs by PI staining based flow cytometry analysis (reference value: 0.06 %); format: functional
[15] = biological target: Vascular endothelial growth factor receptor 2 (Homo sapiens) (UniProt P35968); assay: Inhibition of VEGFR2 in human HT-29 cells assessed as reduction in ERK1/2 phosphorylation incubated for 48 hrs by Western blot analysis; format: cell-based; details: dose 1-10 µM
[16] = test system: HT-29; assay: Induction of cell cycle arrest in human HT-29 cells assessed as G1 phase accumulation at 10 uM incubated for 48 hrs by PI staining based flow cytometry analysis (reference value: 56.39 %); format: functional
[17] = biological target: Vascular endothelial growth factor receptor 2 (Homo sapiens) (UniProt P35968); assay: Inhibition of VEGFR2 in human HT-29 cells assessed as reduction in ERK1/2 expression incubated for 48 hrs by Western blot analysis; format: cell-based; details: dose 1-10 µM
[18] = test system: HT-29; assay: Induction of apoptosis in human HT-29 cells assessed as viable cells at 5 uM incubated for 48 hrs by annexin V-FITC and PI staining based flow cytometry analysis (reference value: 88.2 %); format: functional; details: read-out: Activity
[19] = test system: HT-29; assay: Induction of apoptosis in human HT-29 cells assessed as upregulation of Bax expression at 1 to 10 uM incubated for 48 hrs by Western blot analysis; format: functional, cell-based; details: dose 1-10 µM
[20] = test system: HT-29; assay: Induction of cell cycle arrest in human HT-29 cells assessed as G2 phase accumulation at 1 uM incubated for 48 hrs by PI staining based flow cytometry analysis (reference value: 11.7 %); format: functional
[21] = test system: HT-29; assay: Induction of cell cycle arrest in human HT-29 cells assessed as S phase accumulation at 1 uM incubated for 48 hrs by PI staining based flow cytometry analysis (reference value: 36.98 %); format: functional
[22] = test system: HT-29; assay: Induction of apoptosis in human HT-29 cells assessed as late apoptotic cells at 10 uM incubated for 48 hrs by annexin V-FITC and PI staining based flow cytometry analysis (reference value: 1.08 %); format: functional
[23] = test system: HT-29; assay: Induction of cell cycle arrest in human HT-29 cells assessed as subG1 phase accumulation at 5 uM incubated for 48 hrs by PI staining based flow cytometry analysis (reference value: 0.06 %); format: functional
[24] = test system: HT-29; assay: Induction of cell cycle arrest in human HT-29 cells assessed as S phase accumulation at 10 uM incubated for 48 hrs by PI staining based flow cytometry analysis (reference value: 36.98 %); format: functional
[25] = test system: HT-29; assay: Induction of apoptosis in human HT-29 cells assessed as increase in caspase3 expression incubated for 48 hrs by Western blot analysis; format: functional, cell-based; details: dose 1-10 µM
[26] = test system: HT-29; assay: Induction of apoptosis in human HT-29 cells assessed as necrotic cells at 1 uM incubated for 48 hrs by annexin V-FITC and PI staining based flow cytometry analysis (reference value: 9.68 %); format: functional
[27] = test system: HT-29; assay: Induction of cell cycle arrest in human HT-29 cells assessed as G1 phase accumulation at 1 uM incubated for 48 hrs by PI staining based flow cytometry analysis (reference value: 56.39 %); format: functional
[28] = test system: HT-29; assay: Induction of cell cycle arrest in human HT-29 cells assessed as G2 phase accumulation at 10 uM incubated for 48 hrs by PI staining based flow cytometry analysis (reference value: 11.7 %); format: functional
[29] = test system: HT-29; assay: Induction of apoptosis in human HT-29 cells assessed as late apoptotic cells incubated for 48 hrs by annexin V-FITC and PI staining based flow cytometry analysis; format: functional, cell-based; details: dose 1-10 µM
[30] = test system: HT-29; assay: Induction of apoptosis in human HT-29 cells assessed as late apoptotic cells at 1 uM incubated for 48 hrs by annexin V-FITC and PI staining based flow cytometry analysis (reference value: 1.08 %); format: functional
[31] = test system: HT-29; assay: Induction of apoptosis in human HT-29 cells assessed as early apoptotic cells incubated for 48 hrs by annexin V-FITC and PI staining based flow cytometry analysis; format: functional, cell-based; details: dose 1-10 µM
[32] = test system: HT-29; assay: Induction of cell cycle arrest in human HT-29 cells assessed as reduction in cyclin D1 level incubated for 48 hrs by Western blot analysis; format: functional, cell-based; details: dose 1-10 µM
[33] = test system: HT-29; assay: Induction of apoptosis in human HT-29 cells assessed as early apoptotic cells at 10 uM incubated for 48 hrs by annexin V-FITC and PI staining based flow cytometry analysis (reference value: 1.01 %); format: functional
[34] = biological target: Vascular endothelial growth factor receptor 2 (Homo sapiens) (UniProt P35968); assay: Inhibition of VEGFR2 in human HT-29 cells assessed as reduction in c-Raf expression incubated for 48 hrs by Western blot analysis; format: cell-based; details: dose 1-10 µM
[35] = test system: HT-29; assay: Induction of ROS accumulation in human HT-29 cells at 1 to 10 uM incubated for 12 hrs by […] and DAPI staining based luminescence spectrometer; format: functional, cell-based; details: dose 1-10 µM
[36] = test system: HT-29; assay: Induction of cell cycle arrest in human HT-29 cells assessed as S phase accumulation at 5 uM incubated for 48 hrs by PI staining based flow cytometry analysis (reference value: 36.98 %); format: functional
[37] = test system: HT-29; assay: Induction of apoptosis in human HT-29 cells assessed as viable cells at 10 uM incubated for 48 hrs by annexin V-FITC and PI staining based flow cytometry analysis (reference value: 88.2 %); format: functional; details: read-out: Activity
[38] = test system: HT-29; assay: Induction of cell cycle arrest in human HT-29 cells assessed as G1 phase accumulation at 5 uM incubated for 48 hrs by PI staining based flow cytometry analysis (reference value: 56.39 %); format: functional
[39] = test system: HT-29; assay: Induction of apoptosis in human HT-29 cells assessed as early apoptotic cells at 5 uM incubated for 48 hrs by annexin V-FITC and PI staining based flow cytometry analysis (reference value: 1.01 %); format: functional
[40] = test system: HT-29; assay: Induction of cell cycle arrest in human HT-29 cells assessed as G2 phase accumulation at 5 uM incubated for 48 hrs by PI staining based flow cytometry analysis (reference value: 11.7 %); format: functional

Chain of Vascular endothelial growth factor receptor 2 (Homo sapiens) (P35968 whole entry): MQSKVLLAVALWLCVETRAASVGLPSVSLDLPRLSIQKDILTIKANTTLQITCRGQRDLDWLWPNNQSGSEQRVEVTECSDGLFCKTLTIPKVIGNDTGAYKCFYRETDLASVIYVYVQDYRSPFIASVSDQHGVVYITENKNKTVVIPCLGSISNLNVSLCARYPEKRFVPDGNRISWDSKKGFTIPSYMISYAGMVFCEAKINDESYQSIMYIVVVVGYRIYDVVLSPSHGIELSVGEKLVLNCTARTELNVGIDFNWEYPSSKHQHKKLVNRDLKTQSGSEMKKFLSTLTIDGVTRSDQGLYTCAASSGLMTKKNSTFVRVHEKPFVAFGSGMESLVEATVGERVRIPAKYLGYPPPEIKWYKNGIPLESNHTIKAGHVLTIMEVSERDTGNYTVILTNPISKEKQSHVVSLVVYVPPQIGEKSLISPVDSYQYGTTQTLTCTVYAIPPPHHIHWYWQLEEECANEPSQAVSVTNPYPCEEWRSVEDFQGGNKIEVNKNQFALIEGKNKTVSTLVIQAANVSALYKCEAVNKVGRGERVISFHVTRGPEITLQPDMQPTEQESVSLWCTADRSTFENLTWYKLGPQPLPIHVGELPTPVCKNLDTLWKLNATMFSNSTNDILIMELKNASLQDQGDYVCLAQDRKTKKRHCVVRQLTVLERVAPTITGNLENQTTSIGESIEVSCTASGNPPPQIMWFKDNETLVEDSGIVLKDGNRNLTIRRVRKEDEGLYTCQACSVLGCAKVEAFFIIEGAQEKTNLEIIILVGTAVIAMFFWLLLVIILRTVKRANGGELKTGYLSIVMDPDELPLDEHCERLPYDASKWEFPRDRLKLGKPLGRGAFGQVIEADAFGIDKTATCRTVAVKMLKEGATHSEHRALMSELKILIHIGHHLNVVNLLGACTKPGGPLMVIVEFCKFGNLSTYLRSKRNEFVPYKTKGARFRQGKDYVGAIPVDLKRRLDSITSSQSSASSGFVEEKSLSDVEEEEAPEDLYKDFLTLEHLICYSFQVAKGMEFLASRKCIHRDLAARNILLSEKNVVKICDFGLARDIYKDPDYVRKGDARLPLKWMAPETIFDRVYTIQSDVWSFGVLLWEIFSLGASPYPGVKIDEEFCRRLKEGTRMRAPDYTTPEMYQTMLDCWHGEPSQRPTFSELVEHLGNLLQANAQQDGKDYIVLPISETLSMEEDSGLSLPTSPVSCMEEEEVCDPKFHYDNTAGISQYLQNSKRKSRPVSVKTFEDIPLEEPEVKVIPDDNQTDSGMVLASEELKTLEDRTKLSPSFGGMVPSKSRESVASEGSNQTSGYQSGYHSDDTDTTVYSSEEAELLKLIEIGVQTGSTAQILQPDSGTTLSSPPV

IC50 [1]: 128 µM
IC50 [2]: 38.5 µM
Structure (SMILES): O=C(Nc1ccccc1)Nc1ccc(OC(=O)c2ccc(F)cc2)cc1

inhibition [4]: Dose-dependent effect
inhibition [6]: Dose-dependent effect
IC50 [1]: 3.38 µM
inhibition [15]: Dose-dependent effect
inhibition [17]: Dose-dependent effect
IC50 [2]: 0.63 µM
inhibition [34]: Dose-dependent effect
Structure (SMILES): O=C(Cc1ccccc1)Nc1ccc(NC(=O)Nc2ccccc2)cc1
Activity [3]: Active
Activity [5]: Active
Activity [7]: 3.45%
Activity [8]: 2.18%
Activity [9]: 6.75%
Activity [10]: 1.46%
Activity [11]: Dose-dependent effect
viability at 1 µM [12]: 82.4%
Activity [13]: 7.95%
Activity [14]: 0.43%
Activity [16]: 60.9%
viability at 5 µM [18]: 86.8%
Activity [19]: Active
Activity [20]: 11.64%
Activity [21]: 29.67%
Activity [22]: 5.46%
Activity [23]: 7.45%
Activity [24]: 15.84%
Activity [25]: Dose-dependent effect
Activity [26]: 14.2%
Activity [27]: 61.96%
Activity [28]: 27.49%
Activity [29]: Dose-dependent effect
Activity [30]: 1.93%
Activity [31]: Dose-dependent effect
Activity [32]: Dose-dependent effect
Activity [33]: 2.22%
Activity [35]: Active
Activity [36]: 18.48%
viability at 10 µM [37]: 85.6%
Activity [38]: 63.44%
Activity [39]: 3.09%
Activity [40]: 18.18%

IC50 [1]: 151 µM
IC50 [2]: 30.1 µM
Structure (SMILES): O=C(Nc1ccc(OC(=O)c2ccccc2)cc1)Nc1ccc(Cl)c(C(F)(F)F)c1

IC50 [1]: 104 µM
IC50 [2]: 47.7 µM
Structure (SMILES): Cc1ccc(NC(=O)Nc2ccc(OC(=O)c3ccccc3)cc2)cc1

IC50 [1]: 56 µM
IC50 [2]: 24.7 µM
Structure (SMILES): O=C(Nc1ccc(Cl)cc1)Nc1ccc(OC(=O)c2ccccc2)cc1

IC50 [1]: 19.9 µM
IC50 [2]: 18.9 µM
Structure (SMILES): Cc1ccc(C(=O)Oc2ccc(NC(=O)Nc3ccccc3)cc2)cc1

IC50 [1]: 457 µM
IC50 [2]: 61.5 µM
Structure (SMILES): CC(=O)c1cccc(NC(=O)Nc2ccc(OC(=O)c3cc4cc([N+](=O)[O-])ccc4s3)cc2)c1

IC50 [1]: 185 µM
IC50 [2]: 120 µM
Structure (SMILES): O=C(Nc1ccccc1)Nc1ccc(OC(=O)c2ccc([N+](=O)[O-])cc2)cc1
